Peptide text beside a SMILES is read from it. * marks the point of attachment. Cbz = O=C(OCc1ccccc1)*; CH2F = FC*
Target: T1, caspase-7 (Homo sapiens, UniProt P55210)
T1 construct: endogenous in cells; host or cells: A2058 human melanoma cells infected with delta-PK
T1 sequence (P55210 24-198 limits assumed): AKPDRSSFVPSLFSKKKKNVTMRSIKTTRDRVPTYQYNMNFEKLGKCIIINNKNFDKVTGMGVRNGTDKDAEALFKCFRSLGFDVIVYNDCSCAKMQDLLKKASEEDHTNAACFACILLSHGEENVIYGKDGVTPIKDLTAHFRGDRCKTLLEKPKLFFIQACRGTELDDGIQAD
T1 sequence (P55210 207-303 limits assumed): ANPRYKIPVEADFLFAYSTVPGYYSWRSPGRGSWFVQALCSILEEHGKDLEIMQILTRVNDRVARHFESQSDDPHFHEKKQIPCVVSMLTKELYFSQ
Test: Immunoblotting for caspase-7 activation in infected melanoma cells
Format: cell-based
Conditions: delta-PK infected cultures, 24 hrs p.i.; PD150606 100 μM; z-VAD-fmk 100 μM (Sigma-Aldrich) or 20 μM (Promega)
Excerpt: FIG. 6. Calpain and caspase-7 and caspace-3 are activated in delta-PK infected melanoma cells. […] Data were quantified by densitometry and expressed as the ratio of the p76/p80 and p28 densitometric units +/−SD, respectively. Representatives of three replicate experiments are shown (***p<0.001 vs. Mock). B. The immunoblots in FIG. 6A were sequentially stripped and re-probed with antibodies to activated caspase-7, activated caspase-3, and actin. Data were quantified by densitometry and results are expressed as densitometric units +/−SD (**p<0.01, ***p<0.001 vs. Mock). C. […]
Cultured cells were lysed with radioimmunoprecipitation buffer [RIPA; 20 mM Tris-HCl (pH 7.4), […], 1% Nonidet P-40, 0.1% sodium dodecyl sulfate (SDS), 0.5% sodium deoxycholate] supplemented with protease and phosphatase inhibitor cocktails (Sigma-Aldrich), and sonicated twice for 30 seconds at 25% output power with a sonicator ultrasonic processor (Misonix, Inc., Farmingdale, N.Y.). […] Protein concentration was determined by the bicinchoninic assay (Pierce, Rockford, Ill.), and 100 μg protein samples were resolved by SDS-polyacrylamide gel elecrophoresis (SDS-PAGE) and transferred to polyvinylidene fluoride membranes followed by immunoblotting. […] Quantitation was by densitometric scanning with the Bio-Rad GS-700 imaging densitometer (Bio-Rad, Hercules, Calif.). […]

Compound	effect of inhibitor on delta-PK induced caspase-7 activation / cleavage products
O=C(O)/C(S)=C/c1ccc(I)cc1 [PD150606]	increased
COC(=O)C[C@H](NC(=O)[C@H](C)NC(=O)[C@@H](NC(=O)OCc1ccccc1)C(C)C)C(=O)CF [z-VAD-fmk, benzyloxcarbonyl-Val-Ala-Asp-fluormethyl ketone] (Cbz-Val-Ala-Asp(OMe)-CH2F)	inhibited
